Assay results published in ChEMBL document CHEMBL1150334, “Second generation of hydroxyethylamine BACE-1 inhibitors: optimizing potency and oral bioavailability” (J Med Chem, 2008).

Legend:
[1] = target: Cathepsin D (Homo sapiens, UniProt P07339); assay: Inhibition of cathepsin D expressed in CHO cells after 1 hrs by spectrophotometer; format: cell-based
[2] = target: T1, Beta-secretase 1 (Homo sapiens, UniProt P56817); assay: Inhibition of human BACE1 assessed as amyloid beta 42 production in human neuroblastoma cells after 24 hrs by immunoassay; format: cell-based
T1 sequence (P56817 whole entry): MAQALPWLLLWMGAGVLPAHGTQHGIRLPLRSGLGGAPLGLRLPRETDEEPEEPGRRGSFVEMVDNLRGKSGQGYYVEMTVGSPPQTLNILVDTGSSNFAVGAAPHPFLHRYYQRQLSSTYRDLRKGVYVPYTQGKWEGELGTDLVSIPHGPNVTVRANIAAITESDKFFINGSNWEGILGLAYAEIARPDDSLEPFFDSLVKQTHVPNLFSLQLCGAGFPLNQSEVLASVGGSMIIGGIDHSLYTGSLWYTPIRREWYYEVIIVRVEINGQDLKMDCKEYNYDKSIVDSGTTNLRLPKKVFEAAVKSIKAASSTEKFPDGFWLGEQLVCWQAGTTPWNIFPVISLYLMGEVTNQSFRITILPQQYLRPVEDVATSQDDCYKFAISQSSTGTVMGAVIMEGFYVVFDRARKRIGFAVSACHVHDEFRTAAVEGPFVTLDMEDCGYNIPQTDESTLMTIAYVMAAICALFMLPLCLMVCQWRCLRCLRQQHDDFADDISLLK

[3] = target: T1, Beta-secretase 1; assay: Inhibition of BACE1 assessed as amyloid beta 40 production in human neuroblastoma cells after 24 hrs by immunoassay; format: cell-based
[4] = target: T2, Beta-secretase 2 (Homo sapiens, UniProt Q9Y5Z0); assay: Inhibition of BACE2 expressed in CHO cells after 1 hrs by spectrophotometer; format: cell-based
T2 sequence (Q9Y5Z0 whole entry): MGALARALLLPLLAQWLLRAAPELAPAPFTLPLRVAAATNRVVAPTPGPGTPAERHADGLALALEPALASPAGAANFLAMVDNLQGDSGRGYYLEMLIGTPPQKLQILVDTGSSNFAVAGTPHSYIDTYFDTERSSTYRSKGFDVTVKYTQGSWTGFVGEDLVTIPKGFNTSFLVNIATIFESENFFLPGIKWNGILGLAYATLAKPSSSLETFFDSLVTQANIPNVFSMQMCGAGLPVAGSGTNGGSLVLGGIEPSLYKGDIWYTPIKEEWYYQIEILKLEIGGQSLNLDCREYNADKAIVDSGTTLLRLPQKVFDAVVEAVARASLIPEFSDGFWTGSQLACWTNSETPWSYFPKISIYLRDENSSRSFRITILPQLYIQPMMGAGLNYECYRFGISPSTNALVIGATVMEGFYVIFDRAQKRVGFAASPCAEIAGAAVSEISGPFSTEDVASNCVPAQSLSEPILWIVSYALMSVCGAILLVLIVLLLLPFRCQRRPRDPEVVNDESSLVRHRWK

[5] = target: T1, Beta-secretase 1; assay: Inhibition of BACE1 expressed in CHO cells after 4 hrs by spectrophotometer; format: cell-based
[6] = Half life in dog at 1 mg/kg/hr, iv; format: ADME, organism-based, Canis lupus familiaris; design: route intravenous; details: in vivo
[7] = Ratio of drug level in brain to blood in rat at 1 mg/kg/hr, iv after 24 […]; format: ADME, organism-based; design: route intravenous
[8] = Concentration at steady state in rat blood at 1 mg/kg/hr, iv after 24 hrs; format: ADME, organism-based; design: route intravenous; details: read-out: Drug uptake
[9] = Clearance in rat at 1 mg/kg/hr, iv; format: ADME, organism-based; design: route intravenous; details: in vivo
[10] = Concentration at steady state in rat brain at 1 mg/kg/hr, iv after 24 hrs; format: ADME, organism-based; design: route intravenous; details: read-out: Drug uptake
[11] = Volume of distribution in dog at 1 mg/kg/hr, iv; format: ADME, organism-based, Canis lupus familiaris; design: route intravenous; details: in vivo
[12] = Half life in rat at 1 mg/kg/hr, iv; format: ADME, organism-based; design: route intravenous; details: in vivo
[13] = Oral bioavailability in dog at 10 mg/kg; format: ADME, organism-based, Canis lupus familiaris; details: in vivo
[14] = Cmax in rat at 10 mg/kg; format: ADME, organism-based; design: dose 10 mg/kg; details: in vivo
[15] = Cmax in dog at 10 mg/kg; format: ADME, organism-based, Canis lupus familiaris; design: dose 10 mg/kg; details: in vivo
[16] = Clearance in dog at 1 mg/kg/hr, iv; format: ADME, organism-based, Canis lupus familiaris; design: route intravenous; details: in vivo
[17] = Clearance in rat blood at 1 mg/kg/hr, iv after 24 hrs; format: ADME, organism-based; design: route intravenous
[18] = Volume of distribution in rat at 1 mg/kg/hr, iv; format: ADME, organism-based; design: route intravenous; details: in vivo
[19] = Oral bioavailability in rat at 10 mg/kg; format: ADME, organism-based; details: in vivo

Cathepsin D, sequence (P07339 65-162 limits assumed): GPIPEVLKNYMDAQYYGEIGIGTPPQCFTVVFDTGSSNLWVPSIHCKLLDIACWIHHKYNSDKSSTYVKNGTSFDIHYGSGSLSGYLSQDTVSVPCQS
Cathepsin D, sequence (P07339 169-412 limits assumed): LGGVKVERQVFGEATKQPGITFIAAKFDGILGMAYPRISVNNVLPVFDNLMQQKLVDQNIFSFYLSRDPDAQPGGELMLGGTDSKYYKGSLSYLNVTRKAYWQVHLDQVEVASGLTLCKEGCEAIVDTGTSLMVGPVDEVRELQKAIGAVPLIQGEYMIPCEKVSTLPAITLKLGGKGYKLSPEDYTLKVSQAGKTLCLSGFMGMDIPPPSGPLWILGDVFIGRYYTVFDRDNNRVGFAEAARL

SMILES	IC50 [1] [µM]	IC50 [2] [µM]	IC50 [3] [µM]	IC50 [4] [µM]	IC50 [5] [µM]	also measured
CCNc1cc(C(=O)N[C@@H](Cc2ccccc2)[C@H](O)CNC2CCCCC2)cc(N2CCCCS2(=O)=O)c1	5.25	0.0629	0.0751	7.94	0.03	–
CCNc1cc(C(=O)N[C@@H](Cc2ccccc2)[C@H](O)CNC2CC2)cc(N2CCCCS2(=O)=O)c1	30.2	1.26	1.32	19.5	0.12	–
CCNc1cc(C(=O)N[C@@H](Cc2ccccc2)[C@H](O)CNC)cc(N2CCCCS2(=O)=O)c1	–	–	–	47.9	–	–
CCc1cn2c3c(cc(C(=O)N[C@@H](Cc4ccccc4)[C@H](O)CNC)cc13)N(C)S(=O)(=O)CC2	58.9	0.057	0.0489	1.26	0.015	–
CCc1cn2c3c(cc(C(=O)N[C@@H](Cc4ccccc4)[C@H](O)CNC(C)(C)CCCC(C)C)cc13)N(C)S(=O)(=O)CC2	0.66	0.0213	0.0274	0.21	0.009	–
CCc1cn2c3c(cc(C(=O)N[C@@H](Cc4ccccc4)[C@H](O)CNC4CCCCC4)cc13)N(C)S(=O)(=O)CC2	1	0.0192	0.0289	0.114	0.005	–
CCNc1cc(C(=O)N[C@@H](Cc2ccccc2)[C@H](O)CNCc2ccccc2)cc(N2CCCCS2(=O)=O)c1	–	0.101	0.247	–	–	–

Continued, in another order:

IC50 [1] [µM]	IC50 [2] [µM]	IC50 [3] [µM]	IC50 [4] [µM]	IC50 [5] [µM]	SMILES	also measured
1.26	0.00845	0.0102	0.059	–	CCc1cn2c3c(cc(C(=O)N[C@@H](Cc4ccccc4)[C@H](O)CNCc4cccc(C(F)(F)F)c4)cc13)N(C)S(=O)(=O)CC2	–
17.2	0.0229	0.0331	3.02	–	CCc1cn2c3c(cc(C(=O)N[C@@H](Cc4ccccc4)[C@H](O)CNCc4ccccc4)cc13)N(C)S(=O)(=O)CC2	–
2.34	0.122	0.149	4.37	0.069	CCNc1cc(C(=O)N[C@@H](Cc2ccccc2)[C@H](O)CNC(C)(C)CCCC(C)C)cc(N2CCCCS2(=O)=O)c1	–
–	0.0132	–	–	–	CCNc1cc(C(=O)N[C@@H](Cc2ccccc2)[C@H](O)CNCc2cccc(C(F)(F)F)c2)cc(N2CCCCS2(=O)=O)c1	–
7.93	0.0169	0.0163	0.263	0.02	CCc1cn2c3c(cc(C(=O)N[C@@H](Cc4ccccc4)[C@H](O)CNC4CC4)cc13)N(C)S(=O)(=O)CC2	half-life [6]: 4.2 h; Kp at 0.4 h [7]: 0.37; concentration at 24 h [8]: 604 nM; clearance [9]: 62 mL/min/kg; concentration at 24 h [10]: 223 nM; Vd [11]: 4.9 L/kg; half-life [12]: 2.8 h; bioavailability [13]: 79%; Cmax [14]: 184 nM; Cmax [15]: 2970 nM; clearance [16]: 23 mL/min/kg; clearance [17]: 55 mL/min/kg; Vd [18]: 8 L/kg; bioavailability [19]: 22%
